Where two headings read alike, the source gives them in different places.
What was measured:
DDR1 = biological target: T1, DDR1 (Homo sapiens, UniProt Q08345); experiment: LanthaScreen Europium Kinase Binding assay, DDR1
T1 construct: purchased Carna Biosciences
Method in brief: (§1)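 Compounds were incubated 1 h at rt with 5 nM DDR1 plus 20 nM Kinase Tracer 178, or 5 nM DDR2 plus 10 nM tracer, and 2 nM Eu anti-GST antibody in HEPES pH 7.5 buffer. Read-out was the TR-FRET 665/615 nm ratio. IC50 came from a 4-parameter fit and was converted to Ki by Cheng-Prusoff.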

DDR2 = biological target: T2, DDR2 (Homo sapiens, UniProt Q16832); experiment: LanthaScreen Europium Kinase Binding assay, DDR2
T2 construct: purchased Life Technologies
T2 sequence (Q16832 22-855): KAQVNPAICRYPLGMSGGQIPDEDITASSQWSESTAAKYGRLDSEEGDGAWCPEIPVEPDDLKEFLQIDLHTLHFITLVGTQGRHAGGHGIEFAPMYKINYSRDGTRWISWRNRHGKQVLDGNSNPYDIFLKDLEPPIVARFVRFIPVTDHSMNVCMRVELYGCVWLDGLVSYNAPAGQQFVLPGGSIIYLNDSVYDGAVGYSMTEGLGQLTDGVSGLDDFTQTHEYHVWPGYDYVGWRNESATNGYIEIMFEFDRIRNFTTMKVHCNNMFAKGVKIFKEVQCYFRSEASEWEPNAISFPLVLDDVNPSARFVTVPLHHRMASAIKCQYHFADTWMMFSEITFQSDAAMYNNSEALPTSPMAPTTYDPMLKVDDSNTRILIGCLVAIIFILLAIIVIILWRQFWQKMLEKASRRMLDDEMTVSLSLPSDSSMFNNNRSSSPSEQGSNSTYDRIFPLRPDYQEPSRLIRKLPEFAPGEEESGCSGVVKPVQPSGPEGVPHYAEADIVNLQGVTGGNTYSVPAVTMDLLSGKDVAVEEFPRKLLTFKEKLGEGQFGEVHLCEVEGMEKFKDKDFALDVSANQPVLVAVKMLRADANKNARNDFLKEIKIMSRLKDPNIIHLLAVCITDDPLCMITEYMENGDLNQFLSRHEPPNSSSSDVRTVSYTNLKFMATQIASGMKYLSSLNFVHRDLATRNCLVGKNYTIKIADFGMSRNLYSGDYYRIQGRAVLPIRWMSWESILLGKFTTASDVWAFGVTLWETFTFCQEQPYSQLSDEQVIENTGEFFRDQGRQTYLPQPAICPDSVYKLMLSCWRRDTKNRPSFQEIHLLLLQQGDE
Method in brief: as §1

[1] = 5 nM DDR1, 20 nM Kinase Tracer 178, 1 h at rt, Ki from IC50 by Cheng-Prusoff, read-out: Ki DDR1
[2] = 5 nM DDR2, 10 nM Kinase Tracer 178, 1 h at rt, Ki from IC50 by Cheng-Prusoff, read-out: Ki DDR2
[3] = same binding assay, 5 nM DDR1, 20 nM Kinase Tracer 178, read-out: DDR1 Ki
[4] = same binding assay, 5 nM DDR2, 10 nM Kinase Tracer 178, read-out: DDR2 Ki

T1 sequence (Q08345 19-913): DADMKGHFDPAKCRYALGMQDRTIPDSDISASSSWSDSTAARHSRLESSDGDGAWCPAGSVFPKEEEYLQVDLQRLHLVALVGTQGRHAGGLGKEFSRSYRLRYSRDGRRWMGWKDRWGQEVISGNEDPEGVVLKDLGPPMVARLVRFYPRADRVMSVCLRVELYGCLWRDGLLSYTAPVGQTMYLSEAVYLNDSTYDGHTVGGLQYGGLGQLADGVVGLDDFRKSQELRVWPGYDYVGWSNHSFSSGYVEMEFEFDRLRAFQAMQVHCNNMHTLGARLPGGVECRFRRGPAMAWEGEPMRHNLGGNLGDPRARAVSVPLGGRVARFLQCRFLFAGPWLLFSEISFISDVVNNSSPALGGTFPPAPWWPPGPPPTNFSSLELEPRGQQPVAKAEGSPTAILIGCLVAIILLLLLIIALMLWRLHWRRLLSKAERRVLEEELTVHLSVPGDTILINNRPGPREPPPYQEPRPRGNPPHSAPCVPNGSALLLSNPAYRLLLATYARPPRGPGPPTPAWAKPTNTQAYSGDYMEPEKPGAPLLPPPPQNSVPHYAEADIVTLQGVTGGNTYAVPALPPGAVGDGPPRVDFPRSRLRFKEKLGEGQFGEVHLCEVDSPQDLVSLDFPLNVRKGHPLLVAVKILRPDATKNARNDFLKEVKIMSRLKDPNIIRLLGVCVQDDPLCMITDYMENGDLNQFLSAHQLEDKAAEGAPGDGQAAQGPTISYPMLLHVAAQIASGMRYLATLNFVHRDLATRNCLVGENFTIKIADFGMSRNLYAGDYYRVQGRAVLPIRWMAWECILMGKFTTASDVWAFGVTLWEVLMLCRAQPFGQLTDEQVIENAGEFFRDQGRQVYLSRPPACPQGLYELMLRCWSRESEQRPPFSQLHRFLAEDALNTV

SMILES | Ki (DDR1; [1]) [nM] | Ki (DDR2; [2]) [nM] | Ki (DDR1; [3]) [nM] | Ki (DDR2; [4]) [nM]
Cc1ccc(C(=O)Nc2cncc(C(F)(F)F)c2)cc1[C@@H]1CCN(c2ncnc3cc(C(=O)N4CCN(C)CC4)sc23)C1 [Example 126, (S)-4-methyl-3-(1-(6-(4-methylpiperazine-1-carbonyl)thieno[3,2-d]pyrimidin-4-yl)pyrrolidin-3-yl)-N-(5-(trifluoromethyl)pyridin-3-yl)benzamide] | < 5 | 5 to 25 |  | 
CNC(=O)c1cc(N2CCC(c3cc(C(=O)Nc4cncc(C(F)(F)F)c4)ccc3OC)C2)ccn1 (centres unmarked) [Example 127, 4-(3-(2-methoxy-5-((5-(trifluoromethyl)pyridin-3-yl)carbamoyl)phenyl)pyrrolidin-1-yl)-N-methylpicolinamide] | < 5 | 5 to 25 |  | 
Cc1ccc(C(=O)Nc2cncc(C(F)(F)F)c2)cc1[C@@H]1CCN(c2nccn3cncc23)C1 [Example 128, (S)-3-(1-(imidazo[1,5-a]pyrazin-8-yl)pyrrolidin-3-yl)-4-methyl-N-(5-(trifluoromethyl)pyridin-3-yl)benzamide] | < 5 | 5 to 25 |  | 
Cc1ccc(C(=O)Nc2cncc(C(F)(F)F)c2)cc1[C@@H]1CCN(c2ncnc3[nH]ncc23)C1 [Example 129, (S)-3-(1-(1H-pyrazolo[3,4-d]pyrimidin-4-yl)pyrrolidin-3-yl)-4-methyl-N-(5-(trifluoromethyl)pyridin-3-yl)benzamide] | < 5 | < 5 |  | 
CC(=O)Nc1ncc(N2CC[C@@H](c3cc(C(=O)Nc4cncc(C(F)(F)F)c4)ccc3C)C2)cn1 [Example 130, (S)-3-(1-(2-acetamidopyrimidin-5-yl)pyrrolidin-3-yl)-4-methyl-N-(5-(trifluoromethyl)pyridin-3-yl)benzamide] | < 5 | 5 to 25 |  | 
Cc1ccc(C(=O)Nc2cc(C(C)(C)C)n(C)n2)cc1[C@@H]1CCN(c2ncnc3ccsc23)C1 [Example 131, (S)-N-(5-(tert-butyl)-1-methyl-1H-pyrazol-3-yl)-4-methyl-3-(1-(thieno[3,2-d]pyrimidin-4-yl)pyrrolidin-3-yl)benzamide] | < 5 | < 5 |  | 
Cc1ccc(C(=O)Nc2cncc(C(F)(F)F)c2)cc1N1CC(Oc2cncc(C(N)=O)c2)C1 [Example 132, 5-((1-(2-methyl-5-((5-(trifluoromethyl)pyridin-3-yl)carbamoyl)phenyl)azetidin-3-yl)oxy)nicotinamide] | < 5 | 5 to 25 |  | 
CC(=O)Nc1cncc(OC2CN(c3cc(C(=O)Nc4cncc(C(F)(F)F)c4)ccc3C)C2)c1 [Example 133, 3-(3-((5-acetamidopyridin-3-yl)oxy)azetidin-1-yl)-4-methyl-N-(5-(trifluoromethyl)pyridin-3-yl)benzamide] | < 5 | < 5 |  | 
Cc1ccc(C(=O)Nc2cncc(C(F)(F)F)c2)cc1[C@@H]1CCN(Cc2cnc3ccccn23)C1 [Example C1, (S)-3-(1-(imidazo[1,2-a]pyridin-3-ylmethyl)pyrrolidin-3-yl)-4-methyl-N-(5 (trifluoromethyl)pyridin-3-yl)benzamide] |  |  | 148 | 588
Cc1ccc(C(=O)Nc2cncc(C(F)(F)F)c2)cc1[C@@H]1CCN(CC(N)=O)C1 [Example C2, (S)-3-(1-(2-amino-2-oxoethyl)pyrrolidin-3-yl)-4-methyl-N-(5-(trifluoromethyl)pyridin-3-yl)benzamide] |  |  | 487 | 588

— patent publication US20260242353A1, “HETEROARYL DERIVATIVES AS DDRs INHIBITORS” (CHIESI FARMACEUTICI S.P.A., priority 2022, published 2026)
